# Laboratory results taken from PubChem BioAssay (NCI).
#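 48-hour exposure; five concentrations; linearly interpolated endpoints. Here, GI50 denotes the concentration required for 50% inhibition of growth. TGI denotes the concentration required for complete inhibition of growth.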
# Assays:
# Test in all cases: growth of human tumour cells (NCI), 48 h
# 786-0 renal = test system: 786-0 renal
# A498 renal = test system: A498 renal
# A549 NSCLC = test system: A549 NSCLC
# ACHN renal = test system: ACHN renal
# BT-549 breast = test system: BT-549 breast
# CAKI-1 renal = test system: CAKI-1 renal
# CCRF-CEM leukemia = test system: CCRF-CEM leukemia
# COLO 205 colon = test system: COLO 205 colon
# DU-145 prostate = test system: DU-145 prostate
# EKVX NSCLC = test system: EKVX NSCLC
# HCC-2998 colon = test system: HCC-2998 colon
# HCT-116 colon = test system: HCT-116 colon
# HCT-15 colon = test system: HCT-15 colon
# HL-60(TB) leukemia = test system: HL-60(TB) leukemia
# HOP-62 NSCLC = test system: HOP-62 NSCLC
# HOP-92 NSCLC = test system: HOP-92 NSCLC
# HS 578T breast = test system: HS 578T breast
# HT29 colon = test system: HT29 colon
# IGROV1 ovarian = test system: IGROV1 ovarian
# K-562 leukemia = test system: K-562 leukemia
# KM12 colon = test system: KM12 colon
# LOX IMVI melanoma = test system: LOX IMVI melanoma
# M14 melanoma = test system: M14 melanoma
# MALME-3M melanoma = test system: MALME-3M melanoma
# MCF7 breast = test system: MCF7 breast
# MDA-MB-231 breast = test system: MDA-MB-231 breast
# MDA-MB-435 = test system: MDA-MB-435
# MOLT-4 leukemia = test system: MOLT-4 leukemia
# NCI-H226 lung = test system: NCI-H226 lung
# NCI-H23 lung = test system: NCI-H23 lung
# NCI-H460 lung = test system: NCI-H460 lung
# NCI-H522 lung = test system: NCI-H522 lung
# NCI/ADR-RES ovarian = test system: NCI/ADR-RES ovarian
# OVCAR-3 ovarian = test system: OVCAR-3 ovarian
# OVCAR-4 ovarian = test system: OVCAR-4 ovarian
# OVCAR-5 ovarian = test system: OVCAR-5 ovarian
# OVCAR-8 ovarian = test system: OVCAR-8 ovarian
# PC-3 prostate = test system: PC-3 prostate
# RPMI-8226 leukemia = test system: RPMI-8226 leukemia
# RXF 393 renal = test system: RXF 393 renal
# SF-268 CNS = test system: SF-268 CNS
# SF-295 CNS = test system: SF-295 CNS
# SF-539 CNS = test system: SF-539 CNS
# SK-MEL-2 melanoma = test system: SK-MEL-2 melanoma
# SK-MEL-28 melanoma = test system: SK-MEL-28 melanoma
# SK-MEL-5 melanoma = test system: SK-MEL-5 melanoma
# SK-OV-3 ovarian = test system: SK-OV-3 ovarian
# SN12C renal = test system: SN12C renal
# SNB-19 CNS = test system: SNB-19 CNS
# SNB-75 CNS = test system: SNB-75 CNS
# SR leukemia = test system: SR leukemia
# SW-620 colon = test system: SW-620 colon
# T-47D breast = test system: T-47D breast
# TK-10 renal = test system: TK-10 renal
# U251 CNS = test system: U251 CNS
# UACC-257 melanoma = test system: UACC-257 melanoma
# UACC-62 melanoma = test system: UACC-62 melanoma
# UO-31 renal = test system: UO-31 renal
smiles,measurement,setting,value
O=C1C(Cl)=C(N2CCN(CCOCCO)CC2)C(=O)c2ncccc21,TGI,786-0 renal,> 10 µM
same,TGI,A498 renal,> 10 µM
same,TGI,A549 NSCLC,> 10 µM
same,TGI,ACHN renal,> 10 µM
same,TGI,BT-549 breast,> 10 µM
same,TGI,CAKI-1 renal,> 10 µM
same,TGI,CCRF-CEM leukemia,> 10 µM
same,TGI,COLO 205 colon,> 10 µM
same,TGI,DU-145 prostate,> 10 µM
same,TGI,EKVX NSCLC,> 10 µM
same,TGI,HCC-2998 colon,> 10 µM
same,TGI,HCT-116 colon,> 10 µM
same,TGI,HCT-15 colon,> 10 µM
same,TGI,HL-60(TB) leukemia,> 10 µM
same,TGI,HOP-62 NSCLC,> 10 µM
same,TGI,HOP-92 NSCLC,3.29 µM
same,TGI,HS 578T breast,> 10 µM
same,TGI,HT29 colon,> 10 µM
same,TGI,IGROV1 ovarian,> 10 µM
same,TGI,K-562 leukemia,> 10 µM
same,TGI,KM12 colon,> 10 µM
same,TGI,LOX IMVI melanoma,> 10 µM
same,TGI,M14 melanoma,> 10 µM
same,TGI,MALME-3M melanoma,> 10 µM
same,TGI,MCF7 breast,> 10 µM
same,TGI,MDA-MB-231 breast,> 10 µM
same,TGI,MDA-MB-435,7.05 µM
same,TGI,MOLT-4 leukemia,> 10 µM
same,TGI,NCI-H226 lung,> 10 µM
same,TGI,NCI-H23 lung,> 10 µM
same,TGI,NCI-H460 lung,> 10 µM
same,TGI,NCI-H522 lung,6.33 µM
same,TGI,NCI/ADR-RES ovarian,> 10 µM
same,TGI,OVCAR-3 ovarian,> 10 µM
same,TGI,OVCAR-4 ovarian,> 10 µM
same,TGI,OVCAR-5 ovarian,> 10 µM
same,TGI,OVCAR-8 ovarian,> 10 µM
same,TGI,PC-3 prostate,> 10 µM
same,TGI,RPMI-8226 leukemia,> 10 µM
same,TGI,RXF 393 renal,9.68 µM
same,TGI,SF-268 CNS,> 10 µM
same,TGI,SF-295 CNS,> 10 µM
same,TGI,SF-539 CNS,> 10 µM
same,TGI,SK-MEL-2 melanoma,> 10 µM
same,TGI,SK-MEL-28 melanoma,> 10 µM
same,TGI,SK-MEL-5 melanoma,> 10 µM
same,TGI,SK-OV-3 ovarian,> 10 µM
same,TGI,SN12C renal,> 10 µM
same,TGI,SNB-19 CNS,> 10 µM
same,TGI,SNB-75 CNS,> 10 µM
same,TGI,SR leukemia,> 10 µM
same,TGI,SW-620 colon,> 10 µM
same,TGI,T-47D breast,5.51 µM
same,TGI,TK-10 renal,> 10 µM
same,TGI,U251 CNS,> 10 µM
same,TGI,UACC-257 melanoma,> 10 µM
same,TGI,UACC-62 melanoma,> 10 µM
C#CCn1cnc2cnc(Nc3cccc(NC(=O)CCl)c3)nc21,GI50,786-0 renal,23.3 µM
same,TGI,786-0 renal,> 62.5 µM
same,GI50,A498 renal,21 µM
same,TGI,A498 renal,> 62.5 µM
same,GI50,A549 NSCLC,20 µM
same,TGI,A549 NSCLC,> 62.5 µM
same,GI50,ACHN renal,10.9 µM
same,TGI,ACHN renal,23.3 µM
same,GI50,BT-549 breast,13.3 µM
same,TGI,BT-549 breast,> 62.5 µM
same,GI50,CAKI-1 renal,22.9 µM
same,TGI,CAKI-1 renal,> 62.5 µM
same,GI50,CCRF-CEM leukemia,15.3 µM
same,TGI,CCRF-CEM leukemia,> 62.5 µM
same,GI50,COLO 205 colon,15.2 µM
same,TGI,COLO 205 colon,45 µM
same,GI50,DU-145 prostate,29.8 µM
same,TGI,DU-145 prostate,> 62.5 µM
same,GI50,EKVX NSCLC,> 62.5 µM
same,TGI,EKVX NSCLC,> 62.5 µM
same,GI50,HCC-2998 colon,46.8 µM
same,TGI,HCC-2998 colon,> 62.5 µM
same,GI50,HCT-116 colon,21.3 µM
same,TGI,HCT-116 colon,> 62.5 µM
same,GI50,HCT-15 colon,29.3 µM
same,TGI,HCT-15 colon,> 62.5 µM
same,GI50,HL-60(TB) leukemia,15.7 µM
same,TGI,HL-60(TB) leukemia,41.3 µM
same,GI50,HOP-62 NSCLC,54.7 µM
same,TGI,HOP-62 NSCLC,> 62.5 µM
same,GI50,HOP-92 NSCLC,> 62.5 µM
same,TGI,HOP-92 NSCLC,> 62.5 µM
same,GI50,HS 578T breast,17.3 µM
same,TGI,HS 578T breast,> 62.5 µM
same,GI50,HT29 colon,17.3 µM
same,TGI,HT29 colon,> 62.5 µM
same,GI50,IGROV1 ovarian,6.99 µM
same,TGI,IGROV1 ovarian,22.3 µM
same,GI50,K-562 leukemia,23.7 µM
same,TGI,K-562 leukemia,> 62.5 µM
same,GI50,KM12 colon,21.1 µM
same,TGI,KM12 colon,> 62.5 µM
same,GI50,LOX IMVI melanoma,16.3 µM
same,TGI,LOX IMVI melanoma,> 62.5 µM
same,GI50,M14 melanoma,22.5 µM
same,TGI,M14 melanoma,> 62.5 µM
same,GI50,MALME-3M melanoma,23.2 µM
same,TGI,MALME-3M melanoma,> 62.5 µM
same,GI50,MCF7 breast,15.3 µM
same,TGI,MCF7 breast,> 62.5 µM
same,GI50,MDA-MB-231 breast,20.8 µM
same,TGI,MDA-MB-231 breast,> 62.5 µM
same,GI50,MDA-MB-435,28.5 µM
same,TGI,MDA-MB-435,> 62.5 µM
same,GI50,MOLT-4 leukemia,21.5 µM
same,TGI,MOLT-4 leukemia,> 62.5 µM
same,GI50,NCI-H226 lung,49.9 µM
same,TGI,NCI-H226 lung,> 62.5 µM
same,GI50,NCI-H23 lung,38.8 µM
same,TGI,NCI-H23 lung,> 62.5 µM
same,GI50,NCI-H460 lung,22.7 µM
same,TGI,NCI-H460 lung,> 62.5 µM
same,GI50,NCI-H522 lung,10.3 µM
same,TGI,NCI-H522 lung,22.4 µM
same,GI50,NCI/ADR-RES ovarian,26.4 µM
same,TGI,NCI/ADR-RES ovarian,> 62.5 µM
same,GI50,OVCAR-3 ovarian,15.2 µM
same,TGI,OVCAR-3 ovarian,> 62.5 µM
same,GI50,OVCAR-5 ovarian,29.8 µM
same,TGI,OVCAR-5 ovarian,> 62.5 µM
same,GI50,OVCAR-8 ovarian,26.3 µM
same,TGI,OVCAR-8 ovarian,> 62.5 µM
same,GI50,PC-3 prostate,27.7 µM
same,TGI,PC-3 prostate,> 62.5 µM
same,GI50,RPMI-8226 leukemia,19.2 µM
same,TGI,RPMI-8226 leukemia,> 62.5 µM
same,GI50,RXF 393 renal,10.1 µM
same,TGI,RXF 393 renal,25.4 µM
same,GI50,SF-268 CNS,25.8 µM
same,TGI,SF-268 CNS,> 62.5 µM
same,GI50,SF-295 CNS,47.1 µM
same,TGI,SF-295 CNS,> 62.5 µM
same,GI50,SF-539 CNS,16.9 µM
same,TGI,SF-539 CNS,> 62.5 µM
same,GI50,SK-MEL-2 melanoma,43 µM
same,TGI,SK-MEL-2 melanoma,> 62.5 µM
same,GI50,SK-MEL-28 melanoma,25.3 µM
same,TGI,SK-MEL-28 melanoma,> 62.5 µM
same,GI50,SK-MEL-5 melanoma,10.3 µM
same,TGI,SK-MEL-5 melanoma,19.5 µM
same,GI50,SK-OV-3 ovarian,23.6 µM
same,TGI,SK-OV-3 ovarian,> 62.5 µM
same,GI50,SN12C renal,19.4 µM
same,TGI,SN12C renal,> 62.5 µM
same,GI50,SNB-19 CNS,36.5 µM
same,TGI,SNB-19 CNS,> 62.5 µM
same,GI50,SNB-75 CNS,8.18 µM
same,TGI,SNB-75 CNS,> 62.5 µM
same,GI50,SR leukemia,56.8 µM
same,TGI,SR leukemia,> 62.5 µM
same,GI50,SW-620 colon,19.1 µM
same,TGI,SW-620 colon,> 62.5 µM
same,GI50,T-47D breast,> 62.5 µM
same,TGI,T-47D breast,> 62.5 µM
same,GI50,TK-10 renal,22.9 µM
same,TGI,TK-10 renal,> 62.5 µM
same,GI50,U251 CNS,19.6 µM
same,TGI,U251 CNS,> 62.5 µM
same,GI50,UACC-257 melanoma,51 µM
same,TGI,UACC-257 melanoma,> 62.5 µM
same,GI50,UACC-62 melanoma,22.6 µM
same,TGI,UACC-62 melanoma,> 62.5 µM
same,GI50,UO-31 renal,10.9 µM
same,TGI,UO-31 renal,55.3 µM
